Source: patent US10537610B1, “Peptide for inhibition of cancer” (priority 2018, dated 2020)
Non-standard residues stand in square brackets, D forms with d. Residues, ends and D or L forms follow the SMILES beside them.

Test system: HMEC-1 endothelial monolayer
Assay: Macromolecular permeability of endothelial monolayer (FITC-dextran tracer assay)
Type: cell-based, human
Experimental: Macromolecular permeability of endothelial monolayer was analyzed by macromolecular tracer assay. HMEC-1 cells were grown in Transwell inserts with polyethylene terephthalate (PET) filters and 0.4-μm pores (Falcon, cat. #353095) in 24-well plates (Falcon, cat. #351147) at 1.5×10^5 cells/insert and immediately treated with P4D peptide (P4D) or with Scrambled P4D peptide (Scr) at a concentration of 500 μM (the samples indicated as 0 hours of incubation). Non-treated cells served as a control sample (Ctrl). Moreover, HMEC-1 cells were treated with P4D peptide at the following periods of time after seeding: 1 hour, 5 hours and 24 hours. One hour after the last treatment with P4D (24 hours) FITC-dextran with a molecular weight of 40 kDa was added into the inserts and the culture medium from the wells was replaced with PBS. After 1 hour incubation in darkness in a humidified incubator with the temperature of 37° C. and 5% CO2 atmosphere, the PBS from the wells (outside the inserts) was transferred into the wells of a black 96-well plate and the fluorescence was measured using the Wallac 1420 VICTOR2 Multilabel Counter (PerkinElmer, Waltham, Mass., USA) at 492 nm of excitation and 517 nm of emission wavelengths.

CC(C)[C@H](NC(=O)[C@H](CO)NC(=O)[C@H](N)CCCCN)C(=O)N[C@H](C(=O)N[C@H](CCCNC(=N)N)C(=O)N[C@@H](CCC(=O)O)C(=O)N[C@@H](CC(=O)O)C(=O)N[C@H](C(=O)NCC(=O)N[C@H](C(=O)N[C@@H](Cc1ccc(O)cc1)C(=O)N[C@H](C(=O)N[C@@H](CS)C(N)=O)[C@@H](C)O)[C@@H](C)O)[C@@H](C)O)[C@@H](C)O [Peptide P4D, NH2-(dK)-SVT-(dR)-EDTGTYTC-CONH2] (H-[dK]SVT[dR]EDTGTYTC-NH2)
effect on preexisting tight junctions (FITC-dextran flux) (P4D 500 μM applied 1, 5 or 24 hours after seeding): did not disrupt the preexisting ones
transendothelial flux of 40-kDa FITC-dextran (P4D 500 μM applied immediately after the cells were seeded (0 hours)): elevated
